Source: patent US9980942B2, “Rejuvenation of precursor cells” (Children's Hospital Medical Center, priority 2012, dated 2018)

Assays:
aged HSCs = assay: Whole genome expression profiling of HSCs; assay type: cell-based; details: CASIN treated aged HSCs
Description: Aged HSCs have distinct whole genome expression profiles. To define the effect of Cdc42 inhibition by CASIN on molecular pathways regulating HSCs, cDNA was derived from linearly amplified RNA from CASIN-treated or untreated aged or young HSCs, using tested amplification, array hybridization and bioinformatic analysis services provided by the company Miltenyi. The goal of these experiments was to identify changes in whole genome expression patterns or in functionally defined groups of genes, rather than changes in individual genes. Differences in expression of functional gene groups was confirmed by real-time RT-PCR of selected genes using the standard ABI/Taqman probe system.

HSC = assay: In vivo rejuvenation of HSC (Example 6); parameters: species or system mice
Method: To test the extent to which CASIN rejuvenates HSC in vivo, aged (20+ months old mice) are given CASIN i. v. or i.p. twice daily for 28 days and compared to young as well as aged solvent injected control groups. In 28 days most of the HSCs cycle at least once in vivo. Subsequently, PB is harvested every 14 days for a total of 2 months and differential blood counts (myeloid cells, lymphoid cells, red blood cells etc) are determined by hemavat counting and flow cytometry. At 3 months post CASIN treatment, when hematopoesis should be fully supported by stem cell activity of the CASIN exposed HSCs, animals are sacrificed and the number of early hematopoietic progenitor cells (Lineage^negc-Kit^+Sca-1^+ or LSK), long-term repopulating-HSC (LSKCD34^low/−Flk-2^−, LT-HSC), lymphoid-primed multi-potent progenitors (LMPPs, LSKCD34^+Flk-2^+11, 23, 24) are determined.
Separately, to investigate the effect of CASIN on stem cell fitness and lineage differentiation, standard competitive transplantation assays are performed using the syngeneic CD45.1/CD45.2 surface marker system to differentiate donor from recipient cells. […] Lineage chimerism (myeloid, B- and T-lymphoid) in peripheral blood (PB) is then determined up to 24-weeks post-transplant. […]

intestinal epithelium = assay: In vivo rejuvenation of intestinal epithelium (immunohistochemistry); details: vs untreated aged mice
Method: To test the extent to which CASIN rejuvenates skin and intestinal epithelium in vivo, aged (22-24 month old B1 6) and young (10-12 week old B1 6) mice were injected with CASIN twice daily (2.4 mg/Kg in PBS and 15% EtOH). A group of control mice in each age group were not given the drug. The injections were given 6 hours apart for 5 days. After 28 days, the mice were sacrificed and skin and intestinal samples were processed for immunohistochemistry.
To further assess the effects of in vivo administration of CASIN on aging parameters in the intestinal epithelium, aged mice were treated with CASIN as described in Example 5. After 28 days, the mice were sacrificed and intestinal samples were processed for immunohistochemistry, including staining for intestinal stem cell markers Bmi1 and Lgr5.

aged LT-HSCs = assay: Competitive serial LT-HSC transplantation after ex vivo CASIN treatment; assay type: in vivo, mouse
Method: For competitive LT-HSC transplantation, young (2-4-month-old) and aged (20-26-month-old) C57BL/6 mice (Ly5.2^+) were used as donors. 200 LT-HSCs were sorted into 96 multi-well plates and cultured (either in suspension or adherent to fibronectin) for 16 hrs in HBSS+10% FBS±CASIN (5 μM) in a water jacketed incubator at 37° C., 5% CO2, 3% O2. Stem cells were then mixed with 3×10^5 BM cells from young (2-4-month-old) BoyJ competitor mice (Ly5.1^+) and then transplanted into BoyJ recipient mice (Ly5.1^+).
Peripheral blood (PB) chimerism was determined by FACS analysis every 8 weeks. 24 weeks post primary transplants, 2×10^6 BM cells from an individual primary recipient mouse were injected into an individual secondary pre-conditioned recipient BoyJ mouse. Experiment was performed three times with LT-HSCs cultured in suspension and two times with LTHSCs cultured on a fibronectin-coated substrate without any difference in experimental outcome. Primary transplanted mice were regarded engrafted when PB chimerism was higher or equal to 1.0% and contribution was detected in all lineages. Secondary transplanted mice were regarded as engrafted when PB chimerism was higher or equal to 0.5% and contribution was detected in all lineages.
PB and BM cell immunostaining was performed according to standard procedures and samples were analyzed on a LSRII flow cytometer (BD Biosciences). Lineage FACS analysis data are plotted as the percentage of B220+, CD3+ and Myeloid (Gr-1+, Mac-1+ and Gr-1+Mac-1+) cells among donor-derived Ly5.2^+ cells. As for early hematopoiesis analysis, mononuclear cells were isolated by low-density centrifugation (Histopaque 1083, Sigma) and stained with a cocktail of biotinylated lineage antibodies. After lineage depletion by magnetic separation (Dynalbeads, Invitrogen), cells were stained with anti-Sca-1 (clone D7) (eBioscience), anti-c-kit (clone 2B8) (eBioscience), anti-CD34 (clone RAM34) (eBioscience), anti-CD127 (clone A7R34) (eBioscience), anti-Flk-2 (clone A2F10) (eBioscience) and Streptavidin (eBioscience). Early hematopoiesis FACS analysis data were plotted as percentage of long-term hematopoietic stem cells (LTHSCs, gated as LSK CD34−/lowFlk2−), short-term hematopoietic stem cells (ST-HSCs, gated as LSK CD34+Flk2−) and lymphoid-primed multipotent progenitors (LMPPs, gated as LSK CD34+Flk2+) (Adolfsson et al., 2005) distribution among donor-derived LSKs (Linnegc-kit+sca-1+ cells). LSK and common lymphoid progenitor cells (CLP, gated as Lin−c-Kit−/low Sca-1−/low IL7Rα+) (Karsunky et al., 2008) were plotted as percentage among donor-derived Linneg cells. In order to isolate LT-HSCs, lineage depletion was performed to enrich for lineage negative cells. Lineage negative cells were then stained as aforementioned and sorted using a BD FACS Aria I or a BD FACS Aria III (BD Bioscience).

[1] = aged mice treated as in Example 5, after 28 days

## OCCNC1CCCc2c1[nH]c1ccc(-c3ccccc3)cc21 (stereo not drawn) [CASIN]
Aged HSCs
  whole genome expression pattern: largely resemble young HSCs
HSC; CASIN-treated aged HSCs
  preferential differentiation towards the myeloid lineage: ameliorated
HSC; HSCs from CASIN-treated aged animals
  chimerism in competitive transplant assays: greater than the overall chimerism supported by aged HSCs and similar to that observed for young HSCs
Intestinal epithelium; [1]
  number of stem cells in crypts (Bmi1 and Lgr5 staining): renewed number of stem cells
  shape, size and distribution of villi and crypts: marked improvement
Intestinal epithelium; aged mice, 2.4 mg/Kg twice daily for 5 days, after 28 days
  shape, number and density of crypts: marked improvement
Aged LT-HSCs; primary recipients
  contribution to the B-cell compartment in PB: increase
  contribution to the myeloid lineage: reduced
  frequency of donor-derived LT-HSCs among donor-derived LSKs: significantly reduced
Aged LT-HSCs; secondary transplant
  B-cell and myeloid engraftment in PB and BM: indistinguishable from young LT-HSCs
  contribution to the LT-HSC pool in BM: indistinguishable from young LT-HSCs
Aged LT-HSCs; secondary transplant, compared to aged LT-HSCs
  overall regenerative capacity (chimerism in PB): increased and stable chimerism in PB
